Results taken from patent US11440923B2, “Substituted macrocyclic indole derivatives” (Bayer Aktiengesellschaft, priority 2017, dated 2022).
Counter-ions that a name gives are not always drawn. Like-named read-outs stand apart in the source and are kept apart here.

Tests used:
BCL-XL = BCL-XL (Homo sapiens (Human), UniProt Q07817); assay: Protein-protein interaction assay BCL-XL/Bad BH3 peptide (BCL-XL assay, TR-FRET); format: binding; settings: read-out: BCL-XL Assay IC50 (median)
Description: Assay 2 Protein-Protein Interaction Assay: BCL-XL/Bad BH3 Peptide (BCL-XL Assay)
The dose-dependent inhibition by the compounds described in this invention of the interaction between BCL-XL and the BH3 domain of Bad (both human) was determined using a steady state binding competition assay with time-resolved fluorescence energy transfer (TR-FRET) readout. For that purpose BCL-XL (amino acids 1-212, C-terminal fused to a hexahistidine (6×His) tag (SEQ ID 3) and a synthetic Bad BH3-derived peptide of sequence Biotin-PEG2-PEG2-[…]-Nle-[…]-amide (SEQ ID 4) served as protein receptor and tracer ligand respectively. The recombinant BCL-XL protein (expressed in E. coli) was purchased from BPS Bioscience (San Diego, Calif., USA). The Bad BH3-derived peptide can be obtained from e.g. Biosyntan (Berlin, Germany).
In the assay 11 different concentrations of each compound (0.1 nM, 0.33 nM, 1.1 nM, 3.8 nM, 13 nM, 44 nM, 0.15 μM, 0.51 μM, 1.7 μM, 5.9 μM and 20 μM) were typically measured as duplicates in the same microtiter plate. For that, 100-fold concentrated DMSO solutions were prepared by serial dilutions (1:3.4) of a 2 mM stock solution in a clear, 384-well microtiter plate (Greiner Bio-One, Frickenhausen, Germany). From there, 50 nl were transferred in a dark test plate (Greiner Bio-One, Frickenhausen, Germany). The assay was initiated by addition of 2 μL of a 2,5-fold concentrated His-BCL-XL solution (usually for a 1 nM end concentration in 5 μL reaction volume) in aqueous assay buffer [50 mM Tris/HCl pH 7, 100 mM sodium chloride (NaCl), 50 mM potassium fluoride (KF), 0.005% Tween-20, 2 mM DTT, 0.1% bovine gamma globulin (BGG)] to the compounds in the assay plate. This was followed by a 10-minute incubation step at 22° C. for pre-equilibration of the putative complex between His-BCL-XL and the compounds. After that, 3 μL of a 1.67-fold concentrated solution (in assay buffer) consisting of Bad BH3-derived peptide (1 nM end concentration) and TR-FRET detection reagents [1.67 nM anti-His-Eu cryptate and 1.67 nM streptavidin-XL665 (both from Cisbio Bioassays, Codolet, France)], were added.
The mixture was incubated in the dark for one hour at 22° C. and then overnight at 4° C. The formation of BCL-XL/Bad complexes was determined by measuring the resonance energy transfer of the anti-His- Eu-cryptate antibody to the streptavidin-XL665 present in the reaction. For that purpose, the fluorescence emission at 620 nm and 665 nm after excitation at 330-350 nm was measured in a TR-FRET measuring instrument, for instance a Rubystar or a Pherastar (both from BMG Lab Technologies, Offenburg, Germany) or a Viewlux (Perkin-Elmer). The ratio of the emission at 665 nm and at 622 nm was used as indicator of the amount of BCL-XL/Bad complexes present.
The resulting data (ratio) were normalized, taking 0% inhibition as the mean value of control measurements (usually 32 data points) where all reagents were included. In this case 50 nl DMSO were used instead of compounds. […] IC50 values were determined by regression analysis based on a 4 parameter equation (minimum, maximum, IC50, Hill; Y=Max+(Min−Max)/(1+(X/IC50)^Hill) using the Screener Software (Genedata).

SUDHL10 cells = assay: Induction of cytotoxicity in SUDHL10 cells (Assay 6); format: cell-based; settings: 5 h, CellTiter-Glo, read-out: Cytotox SUDHL10 IC50 (median)
Summary of the method: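 Overnight seeding, 37 °C; 5 h compound exposure; CellTiter-Glo, 15 min RT shake; luminescence read. No-cell medium control.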

HMC-1-8 cells = assay: Antiproliferation assay HMC-1-8 (Assay 7); format: cell-based
Summary of the method: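 Anti-proliferative effect was measured by CellTiter-Glo ATP luminescence after 72 h compound exposure at 37° C, following overnight plating. IC50s were derived using a parallel time-zero plate and DMSO-treated controls as reference points.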

[1] = 72 h, CellTiter-Glo; read-out: Antiproli HMC-1-8 IC50 median
[2] = read-out: Antiproli HMC-1-8 IC50 median; 72 h, CellTiter-Glo
[3] = 72 h, CellTiter-Glo, read-out: Antiproli HMC-1-8 IC50 median

Sequence of BCL-XL (Q07817 1-212): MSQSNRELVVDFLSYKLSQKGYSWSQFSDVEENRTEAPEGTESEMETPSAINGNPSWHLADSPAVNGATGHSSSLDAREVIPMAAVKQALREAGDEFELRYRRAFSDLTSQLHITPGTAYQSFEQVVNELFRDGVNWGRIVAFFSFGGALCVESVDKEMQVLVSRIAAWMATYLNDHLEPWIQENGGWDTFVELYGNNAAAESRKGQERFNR

For `Cc1c2c(nn1C)C(CCO)OCCCCn1c(C(=O)O)c(CCCOc3cccc4ccccc34)c3ccc(Cl)c-2c31` (single isomer, unassigned; enantiomer 1) [Example 31, (+)-4-chloro-15-(2-hydroxyethyl)-2,3-dimethyl-7-{3-[(naphthalen-1-yl)oxy]propyl}-2,10,11,12,13,15-hexahydropyrazolo[4′,3′:9,10][1,6]oxazacycloundecino[8,7,6-hi]indole-8-carboxylic Acid (Enantiomer 1)], the IC50 (BCL-XL) was > 20 µM, the IC50 (SUDHL10 cells) was 0.35 µM and the IC50 (HMC-1-8 cells; [1]) was 6.8 µM.

In the case of `CCc1c2c(nn1C)C(CCN1CCC(F)(F)C1)OCCCCn1c(C(=O)O)c(CCCOc3cccc4cc(F)ccc34)c3ccc(Cl)c-2c31` (single isomer, unassigned; enantiomer 2) [Example 57, 4-chloro-15-[2-(3,3-difluoropyrrolidin-1-yl)ethyl]-3-ethyl-7-{3-[(6-fluoronaphthalen-1-yl)oxy]propyl}-2-methyl-2,10,11,12,13,15-hexahydropyrazolo[4′,3′:9,10][1,6]oxazacycloundecino[8,7,6-hi]indole-8-carboxylic Acid N-ethylethanamine Salt (Enantiomer 2)], the IC50 (BCL-XL) is reported as > 20 µM, the IC50 (SUDHL10 cells) is reported as 10 µM and the IC50 (HMC-1-8 cells; [2]) is reported as 13.6 µM.

With `CCc1c2c(nn1C)C(CCN1CCOCC1)OCCCCn1c(C(=O)O)c(CCCOc3cccc4cc(F)ccc34)c3ccc(F)c-2c31` (single isomer, unassigned; enantiomer 2) [Example 51, (−)-3-ethyl-4-fluoro-7-{3-[(6-fluoronaphthalen-1-yl)oxy]propyl}-2-methyl-15-[2-(morpholin-4-yl)ethyl]-2,10,11,12,13,15-hexahydropyrazolo[4′,3′:9,10][1,6]oxazacycloundecino[8,7,6-hi]indole-8-carboxylic Acid (Enantiomer 2)] the IC50 (BCL-XL) was > 20 µM, the IC50 (SUDHL10 cells) was 3.7 µM and the IC50 (HMC-1-8 cells; [1]) was 22 µM.

In the case of `Cc1c2c(nn1C)C(CCN1CCOCC1)OCCCCn1c(C(=O)O)c(CCCOc3cccc4cc(F)ccc34)c3ccc(Cl)c-2c31` (racemic) [Example 16, (rac)-4-chloro-7-{3-[(6-fluoronaphthalen-1-yl)oxy]propyl}-2,3-dimethyl-15-[2-(morpholin-4-yl)ethyl]-2,10,11,12,13,15-hexahydropyrazolo[4′,3′:9,10][1,6]oxazacycloundecino[8,7,6-hi]indole-8-carboxylic Acid], the IC50 (BCL-XL) is reported as > 20 µM, the IC50 (SUDHL10 cells; Homo sapiens, SU-DHL10, 5 h) is reported as 0.022 µM and the IC50 (HMC-1-8 cells; [3]) is reported as 0.322 µM.

With `CCc1c2c(nn1C)C(C1CC1)OCCCCn1c(C(=O)O)c(CCCOc3cccc4cc(F)ccc34)c3ccc(Cl)c-2c31` (racemic) [Example 38, (rac)-4-chloro-(15-rac)-cyclopropyl-3-ethyl-7-{3-[(6-fluoronaphthalen-1-yl)oxy]propyl}-2-methyl-2,10,11,12,13,15-hexahydropyrazolo[4′,3′:9,10][1,6]oxazacycloundecino[8,7,6-hi]indole-8-carboxylic Acid] the IC50 (BCL-XL) was > 20 µM, the IC50 (SUDHL10 cells; Homo sapiens, SU-DHL10, 5 h) was 6.3 µM and the IC50 (HMC-1-8 cells; [3]) was 20.3 µM.

With `CCc1c2c(nn1C)C(CCO)OCCCCn1c(C(=O)O)c(CCCOc3cccc4cc(F)ccc34)c3ccc(Cl)c-2c31` (single isomer, unassigned; enantiomer 1) [Example 45, (+)-4-chloro-3-ethyl-7-{3-[(6-fluoronaphthalen-1-yl)oxy]propyl}-15-(2-hydroxyethyl)-2-methyl-2,10,11,12,13,15-hexahydropyrazolo[4′,3′:9,10][1,6]oxazacycloundecino[8,7,6-hi]indole-8-carboxylic Acid (Enantiomer 1)] the IC50 (BCL-XL) was > 20 µM, the IC50 (SUDHL10 cells) was 0.073 µM and the IC50 (HMC-1-8 cells; [1]) was 2.14 µM.

For `CCC1OCCCCn2c(C(=O)O)c(CCCOc3cccc4ccccc34)c3ccc(Cl)c(c32)-c2c1nn(C)c2C` (single isomer, unassigned; enantiomer 2) [Example 30, (−)-4-chloro-15-ethyl-2,3-dimethyl-7-{3-[(naphthalen-1-yl)oxy]propyl}-2,10,11,12,13,15-hexahydropyrazolo[4′,3′:9,10][1,6]oxazacycloundecino[8,7,6-hi]indole-8-carboxylic Acid—N-ethylethanamine Salt (Enantiomer 2)], the IC50 (BCL-XL) was > 20 µM, the IC50 (SUDHL10 cells) was > 33 µM and the IC50 (HMC-1-8 cells; [2]) was 22.6 µM.

`CCc1c2c(nn1C)C(CC(C)(C)O)OCCCCn1c(C(=O)O)c(CCCOc3cccc4cc(F)ccc34)c3ccc(Cl)c-2c31` (single isomer, unassigned; enantiomer 1) [Example 53, (+)-4-chloro-3-ethyl-7-{3-[(6-fluoronaphthalen-1-yl)oxy]propyl}-15-(2-hydroxy-2-methylpropyl)-2-methyl-2,10,11,12,13,15-hexahydropyrazolo[4′,3′:9,10][1,6]oxazacycloundecino[8,7,6-hi]indole-8-carboxylic Acid—N-ethylethanamine Salt (Enantiomer 1)] was tested, and the IC50 (BCL-XL) was 11 µM, the IC50 (SUDHL10 cells) was 0.19 µM and the IC50 (HMC-1-8 cells; [2]) was 0.983 µM.

`CCc1c2c(nn1C)C(c1ccccc1)OCCCCn1c(C(=O)O)c(CCCOc3cccc4cc(F)ccc34)c3ccc(Cl)c-2c31` (racemic) [Example 59, (rac)-4-chloro-3-ethyl-7-{3-[(6-fluoronaphthalen-1-yl)oxy]propyl}-2-methyl-(15-rac)-phenyl-2,10,11,12,13,15-hexahydropyrazolo[4′,3′:9,10][1,6]oxazacycloundecino[8,7,6-hi]indole-8-carboxylic Acid] was tested, and the IC50 (BCL-XL) was > 20 µM, the IC50 (SUDHL10 cells; Homo sapiens, SU-DHL10, 5 h) was 1 µM and the IC50 (HMC-1-8 cells; [3]) was 3.41 µM.

With `CCc1c2c(nn1C)C(CCN1CCN(C)CC1)OCCCCn1c(C(=O)O)c(CCCOc3cccc4cc(F)ccc34)c3ccc(Cl)c-2c31` (racemic) [Example 71, (rac)-4-chloro-3-ethyl-7-{3-[(6-fluoronaphthalen-1-yl)oxy]propyl}-2-methyl-(15-rac)-[2-(4-methylpiperazin-1-yl)ethyl]-2,10,11,12,13,15-hexahydropyrazolo[4′,3′:9,10][1,6]oxazacycloundecino[8,7,6-hi]indole-8-carboxylic Acid—N-ethylethanamine Salt (Mixture 2 Od Stereoisomers)] the IC50 (BCL-XL) was > 20 µM, the IC50 (SUDHL10 cells) was 0.036 µM and the IC50 (HMC-1-8 cells; [2]) was 1.37 µM.

In the case of `CCc1c2c(nn1C)C(C(F)(F)F)OCCCCn1c(C(=O)O)c(CCCOc3cccc4ccccc34)c3ccc(Cl)c-2c31` (single isomer, unassigned; enantiomer 1) [Example 33, (+)-4-chloro-3-ethyl-2-methyl-7-{3-[(naphthalen-1-yl)oxy]propyl}-15-(trifluoromethyl)-2,10,11,12,13,15-hexahydropyrazolo[4′,3′:9,10][1,6]oxazacycloundecino[8,7,6-hi]indole-8-carboxylic Acid—N-ethylethanamine Salt (Enantiomer 1)], the IC50 (BCL-XL) is reported as > 20 µM, the IC50 (SUDHL10 cells) is reported as 3.7 µM and the IC50 (HMC-1-8 cells; 72 h, read-out: Antiproli HMC-1-8 IC50 median, 72 h, CellTiter-Glo) is reported as 15 µM.

With `CCc1c2c(nn1C)C(CCN1CCOCC1)OCCCCn1c(C(=O)O)c(CCCOc3cccc4cc(F)ccc34)c3ccc(Cl)c-2c31` (racemic) [Example 22, (rac)-4-chloro-3-ethyl-7-{3-[(6-fluoronaphthalen-1-yl)oxy]propyl}-2-methyl-15-[2-(morpholin-4-yl)ethyl]-2,10,11,12,13,15-hexahydropyrazolo[4′,3′:9,10][1,6]oxazacycloundecino[8,7,6-hi]indole-8-carboxylic Acid] the IC50 (BCL-XL) was > 20 µM, the IC50 (SUDHL10 cells; Homo sapiens, SU-DHL10, 5 h) was 0.028 µM and the IC50 (HMC-1-8 cells; [3]) was 0.279 µM.
